The values below come from PMC6920794, “Evaluation of Novel Chalcone-Thiosemicarbazones Derivatives as Potential Anti-Leishmania amazonensis Agents and Its HSA Binding Studies” (Biomolecules, 2019).

Data set [1] relates to murine peritoneal macrophages. The data set is described as follows: Macrophage cytotoxicity (resazurin). In kind it is cell-based. Conditions: BALB/c, mouse, 48 h, pH 7.2. The protocol: Peritoneal macrophages from albino laboratory-bred strain (BALB/c) mice were obtained in RPMI 1640 medium at pH 7.2 (Gibco, New York, NY, USA) supplemented with 10% (v/v) heat-inactivated fetal bovine serum, 100 U/mL penicillin and 0.1 mg/mL of streptomycin and distributed (1 × 10^6 macrophages/well) in triplicate in 96-well plates (Falcon Co., Franklin Lakes, USA) and incubated for 1 h in a 5% CO2 atmosphere incubator at 310K. The supernatant was removed, and the compounds were added to the plate at concentrations from 10 µM to 50 µM. Next, the cultures were incubated for 48 h in a CO2 incubator at 310K. After incubation, the supernatant was removed and a resazurin solution (50 µM) was added to each well and incubated at 310K for 4 h. Furthermore, the fluorescence was measured using a wavelength of 560 nm for excitation and 590 nm for detection (Molecular Devices, Silicon Valley, USA). Results were expressed as the percentage of viable cells compared to the control cells treated with the highest DMSO dose used to dissolve the drugs. The 50% cytotoxic concentration (CC50) was calculated using GraphPad Prism 6.0 software (GraphPad Company, San Diego, CA, USA).

Data set [2] deals with T1, human serum albumin (HSA) (Homo sapiens, UniProt P02768).
T1 construct: purchased Sigma Aldrich, St. Louis, MO, USA
T1 sequence (P02768 25-609): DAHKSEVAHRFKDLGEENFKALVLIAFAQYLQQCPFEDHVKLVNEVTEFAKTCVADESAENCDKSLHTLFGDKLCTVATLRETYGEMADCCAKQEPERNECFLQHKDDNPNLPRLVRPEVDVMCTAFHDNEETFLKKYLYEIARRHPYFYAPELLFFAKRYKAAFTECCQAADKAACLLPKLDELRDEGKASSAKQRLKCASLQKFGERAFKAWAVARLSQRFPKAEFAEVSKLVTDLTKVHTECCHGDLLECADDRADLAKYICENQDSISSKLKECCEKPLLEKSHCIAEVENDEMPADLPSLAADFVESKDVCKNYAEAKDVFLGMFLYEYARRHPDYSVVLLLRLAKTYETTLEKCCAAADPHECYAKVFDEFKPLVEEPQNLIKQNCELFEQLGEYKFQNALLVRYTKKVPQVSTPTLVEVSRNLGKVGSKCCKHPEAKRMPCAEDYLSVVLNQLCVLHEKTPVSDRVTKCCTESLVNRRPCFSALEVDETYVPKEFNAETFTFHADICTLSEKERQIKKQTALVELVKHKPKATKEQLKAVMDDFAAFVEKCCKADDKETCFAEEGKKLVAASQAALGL
In words: HSA circular dichroism (α-helix content). Conditions: 310K, 5e 2.78 × 10^−5 M. In kind it is binding. The protocol: Circular dichroism (CD) spectra were measured in the same equipment used in the steady-state fluorescence analysis, using 200–250 nm range at 310K (human body temperature). The experiment was conducted for a 3.0 mL HSA solution (1.00 × 10^−6 M, in PBS) in the absence and presence of 5e (2.78 × 10^−5 M). Each spectrum obtained was the average of three scans. The intensity of the signal from the CD spectra was expressed as mean residue ellipticity (MRE), defined according to Equation (7):(7) MRE=θ/10×n×l×Cp where θ, n, l and Cp are the observed CD (in millidegrees), number of amino acid residues (585 for HSA), optical pathlength of the cell (1.00 cm) and molar concentration of HSA (1.00 × 10^−6 M), respectively.
In order to calculate quantitative information on the percentage of changes in the α-helix content upon 5e binding, the resulting MRE at 208 and 222 nm (far-UV region) were analyzed according to Equations (8A) and (8B):(8A) α−helix%=(−MRE208−4000)/(33000−4000)×100 (8B) α−helix%=(−MRE222−2340)/30300×100
Background: Circular dichroism is the unequal absorption of left and right circularly polarised light.

The target of data set [3] is T1, human serum albumin (HSA). The data set is described as follows: HSA time-resolved fluorescence decays. In kind it is binding. The following applies: 5e 2.78 × 10^−5 M, HSA 1.00 × 10^−5 M, room temperature. The procedure:
The fluorimeter model FL920 CD from Edinburgh Instruments (Edinburgh, UK), equipped with an electrically pumped laser (EPL, with λexc = 280 ± 10 nm; a pulse of 850 ps with the energy of […]; monitoring emission at 340 nm) was used for time-resolved fluorescence decays measurement. The experiment was conducted for a 3.0 mL HSA solution (1.00 × 10^−5 M, in PBS) without and in the presence of 5e (2.78 × 10^−5 M) at room temperature.

For data set [4] the following is noted: constant of substituent 4-X; cited from earlier work.
In data set [5] the test system is L. amazonensis intracellular amastigotes. In words: Intracellular amastigotes assay in infected macrophages. In kind it is cell-based, Leishmania amazonensis. The protocol: Peritoneal macrophages were obtained BALB/c mice with cold Roswell Park Memorial Institute (RPMI) 1640 medium (Sigma Aldrich, St. Louis, MO, USA) supplemented as above. The cell suspension was adjusted to 1 × 10^6 macrophage/mL and incubated in a LAB-TEK 8-chamber slide (Nunc, Roskilde, Denmark) at 310K and 5% CO2 for 1 h. Non-adherent cells were removed and stationary-phase L. amazonensis promastigotes were added at a 3:1 parasite/macrophage ratio. The cultures were incubated for a further 4 h, and free parasites were removed. The chambers were washed, and the monolayers were incubated with the compounds for 48 h. Infected macrophages incubated only in the culture medium were used as controls to compare with the infected treated macrophages. […] The cultures were fixed in methanol and stained with the hematological system Instant Prov (Newprov®, Curitiba, Brazil). The slides were examined by light microscopy, and the number of infected macrophages and the mean number of parasites per macrophage were determined in 100 cells counted. The experiments were performed twice in triplicate. The percentage of infected macrophages was calculated by dividing the number of infected macrophages by the total number of macrophages (infected and uninfected) counted on the slides, multiplied by 100. To determine the infection index, the percentage of infected macrophages was multiplied by the mean number of parasites per macrophage. The percentage inhibition of infection was calculated by multiplying the difference between the infection index of the control and the compound by 100 and dividing by the infection index (IF) of the control using the Equation (1):IF = % infected cells × amastigotes number/total number of macrophages(1) The IC50 ± SD (SD: standard deviation) values were obtained by a sigmoidal model using Origin 6.0 with statistical error limits up to 10%. All tests were conducted in duplicate for each concentration, and two independent assays were performed.

Data set [6] deals with L. amazonensis axenic amastigotes. In words: Axenic amastigotes assay (resazurin). In kind it is cell-based. Conditions: Leishmania amazonensis, 72 h of culture, table title says 48 h. The protocol:
Promastigote forms of L. amazonensis (MHOM/BR/77/LTB0016) were grown to a stationary phase, washed once in phosphate buffer solution (PBS) (pH = 7.4) and adjusted to 5 × 10^6 parasites/mL in Schneider’s medium, supplemented with 20% fetal bovine solution (FBS) pH = 5.5 and maintained at 305K. After 5 days of cultivation, the rounded forms without free flagella were obtained and, after heat shock, were used in the appropriate assays. To evaluate the activity against axenic amastigotes, the parasites were incubated with increasing concentrations of the prototypes (diluted in DMSO) for 72 h at 305K. These assays were performed in triplicate in 96-well flat bottom plates (Falcon Co, Franklin Lakes, USA). The leishmanicidal activity was evaluated by adding 22 μl of resazurin to each well. After 4 h, the cell viability was measured as described above. Calculation of the IC50 values was determined in relation to the control by a sigmoidal model using GraphPad Prism 6.0 software.
(The colour change of resazurin is a common sign of viable cells or microbes.)

As usually defined, the IC50 is the concentration that gives 50% inhibition. With `NC(=S)N/N=C(\C=C\c1ccc(Cl)cc1)c1ccccc1` [Compound 5e, (1E,2E)-3-(4′-chlorophenyl)-1-phenylprop-2-en-1-one thiosemicarbazone], in data set [1], the “Macrophages LD50” value was 32.48 ± 1.81 µM. In addition, the “α-helix content of HSA:5e at 222 nm” value in data set [2] (HSA alone 53.5%) worked out at 52.2%. Besides, the “α-helix content of HSA:5e at 208 nm” value in data set [2] (HSA alone 57.1%) was found to be 55.2%. For the same compound, in data set [3], the “HSA fluorescence lifetime τ1 in the presence of ligand” value amounted to 1.77 ± 0.12 ns and the “HSA fluorescence lifetime τ2 in the presence of ligand” value was 5.91 ± 0.16 ns. Further, in data set [4], the “Hammett constant σp” value is 0.34, the “Hansh constant π (lipophilicity)” value is recorded as 0.71, the “Taft constant Es” value is −0.97 and the “molecular refractivity MR” value is 0.60. This compound also yielded an IC50 in data set [5] (Leishmania amazonensis, Peritoneal macrophage, in Mus musculus, 48 h, L. amazonensis-infected murine peritoneal macrophages, 48 h of culture) of 4.47 ± 0.42 µM. Also, in data set [5] (SI = LD50/IC50 intracellular amastigotes), the “Selectivity Index (SI)” value was 7.27. Moreover, half-maximal inhibition in data set [6] (IC50) required 3.19 ± 1.2 µM.
